Reference: PubChem BioAssay AID1919008 (Molecular Pharmacology Branch, DTP, NCI, 2023)

Test system: DMS-114 complex spheroids with HUVEC/MSC, growth % test/control
Test: Anticancer human tumor DMS-114 cell line growth inhibition [AhR];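 note: spheroids exposed to agents for 7 days before readout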;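 for viability, T/C: 100% = DMSO vehicle control wells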
Settings: for IC50: curve of first compound; for viability, T/C: stronger effect = lower value
Method in brief: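 Spheroids combined tumor cells with HUVEC endothelial cells and human MSCs as stroma. AhR antagonists were paired with standard or investigational drugs, each dosed in half-log steps down from near clinical Cmax, or from 10 microM where Cmax was unknown.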

[1] = second compound 0.1 µM, first compound 0.0316 µM
[2] = second compound 0.1 µM, first compound 0.1 µM
[3] = second compound 0.1 µM, first compound 0.316 µM
[4] = second compound 0.1 µM, first compound 1 µM
[5] = second compound 0.1 µM, first compound 3.16 µM
[6] = second compound 0.1 µM, first compound 10 µM
[7] = second compound 0.316 µM, first compound 0.0316 µM
[8] = second compound 0.316 µM, first compound 0.1 µM
[9] = second compound 0.316 µM, first compound 0.316 µM
[10] = second compound 0.316 µM, first compound 1 µM
[11] = second compound 0.316 µM, first compound 3.16 µM
[12] = second compound 0.316 µM, first compound 10 µM
[13] = second compound 1 µM, first compound 0.0316 µM
[14] = second compound 1 µM, first compound 0.1 µM
[15] = second compound 1 µM, first compound 0.316 µM
[16] = second compound 1 µM, first compound 1 µM
[17] = second compound 1 µM, first compound 3.16 µM
[18] = second compound 1 µM, first compound 10 µM
[19] = second compound 3.16 µM, first compound 0.0316 µM
[20] = second compound 3.16 µM, first compound 0.1 µM
[21] = second compound 3.16 µM, first compound 0.316 µM
[22] = second compound 3.16 µM, first compound 1 µM
[23] = second compound 3.16 µM, first compound 3.16 µM
[24] = second compound 3.16 µM, first compound 10 µM
[25] = second compound 10 µM, first compound 0.0316 µM
[26] = second compound 10 µM, first compound 0.1 µM
[27] = second compound 10 µM, first compound 0.316 µM
[28] = second compound 10 µM, first compound 1 µM
[29] = second compound 10 µM, first compound 3.16 µM
[30] = second compound 10 µM, first compound 10 µM
[31] = second compound 0.1 µM, first compound 0.00316 µM
[32] = second compound 0.1 µM, first compound 0.01 µM
[33] = second compound 0.316 µM, first compound 0.00316 µM
[34] = second compound 0.316 µM, first compound 0.01 µM
[35] = second compound 1 µM, first compound 0.00316 µM
[36] = second compound 1 µM, first compound 0.01 µM
[37] = second compound 3.16 µM, first compound 0.00316 µM
[38] = second compound 3.16 µM, first compound 0.01 µM
[39] = second compound 10 µM, first compound 0.00316 µM
[40] = second compound 10 µM, first compound 0.01 µM

SMILES | IC50 (second compound 0.1 µM) | IC50 (second compound 0.316 µM) | IC50 (second compound 1 µM) | IC50 (second compound 3.16 µM) | IC50 (second compound 10 µM) | viability, T/C [1] | viability, T/C [2] | viability, T/C [3] | viability, T/C [4] | viability, T/C [7] | viability, T/C [8] | viability, T/C [9] | viability, T/C [10] | viability, T/C [13] | viability, T/C [14] | viability, T/C [15] | viability, T/C [16] | viability, T/C [19] | viability, T/C [20] | viability, T/C [21] | other results
CC(C)c1c(-c2ccccc2)nc2c(C#N)c[nH]n2c1=O + CC(CO)NC(=O)c1cc(-c2ccc(Cl)cc2)nn(-c2cnn(C)c2)c1=O | > 10000 nM | > 10000 nM | > 10000 nM | > 10000 nM | > 10000 nM | 93.8% | 95.8% | 93.8% | 95.7% | 96.8% | 98.5% | 101% | 98.9% | 93.7% | 100% | 89.6% | 97.7% | 103% | 96.6% | 95.1% | viability, T/C [5]: 113%; viability, T/C [6]: 108%; viability, T/C [11]: 110%; viability, T/C [12]: 113%; viability, T/C [17]: 97.3%; viability, T/C [18]: 103%; viability, T/C [22]: 94.6%; viability, T/C [23]: 92.3%; viability, T/C [24]: 105%; viability, T/C [25]: 103%; viability, T/C [26]: 105%; viability, T/C [27]: 96.1%; viability, T/C [28]: 104%; viability, T/C [29]: 99.5%; viability, T/C [30]: 113%
CC1COCCN1c1cc(-c2ccnn2C)c2ccnc(-c3ccn[nH]3)c2n1 (stereo not given) + CC(CO)NC(=O)c1cc(-c2ccc(Cl)cc2)nn(-c2cnn(C)c2)c1=O | 50.8 nM | 65 nM | 34.2 nM | 33.6 nM | 21.1 nM | 59.1% | 34.4% | 27.9% | 15.8% | 60.1% | 42.7% | 26.2% | 15.2% | 51.8% | 34.4% | 27.6% | 14.6% | 49.4% | 31.6% | 22.3% | viability, T/C [31]: 90.1%; viability, T/C [32]: 82%; viability, T/C [33]: 93%; viability, T/C [34]: 89.1%; viability, T/C [35]: 85.3%; viability, T/C [36]: 94.4%; viability, T/C [37]: 84.8%; viability, T/C [38]: 73.7%; viability, T/C [22]: 13.9%; viability, T/C [39]: 86.8%; viability, T/C [40]: 63.2%; viability, T/C [25]: 42.2%; viability, T/C [26]: 29.6%; viability, T/C [27]: 24.1%; viability, T/C [28]: 14.8%
COc1ccc([C@@H](O)c2cc(-c3ncnc4cc(N5CCOCC5)ccc34)c(F)cc2Cl)nn1 + CC(CO)NC(=O)c1cc(-c2ccc(Cl)cc2)nn(-c2cnn(C)c2)c1=O | > 10000 nM | > 10000 nM | > 10000 nM | > 10000 nM | > 10000 nM | 98.8% | 100% | 100% | 105% | 98.5% | 96.2% | 90.4% | 94.9% | 92% | 95.5% | 96.7% | 107% | 108% | 99.8% | 91.9% | viability, T/C [5]: 108%; viability, T/C [6]: 61%; viability, T/C [11]: 101%; viability, T/C [12]: 63.3%; viability, T/C [17]: 98.3%; viability, T/C [18]: 63.8%; viability, T/C [22]: 103%; viability, T/C [23]: 104%; viability, T/C [24]: 64.2%; viability, T/C [25]: 104%; viability, T/C [26]: 97.5%; viability, T/C [27]: 95.1%; viability, T/C [28]: 87.5%; viability, T/C [29]: 81.2%; viability, T/C [30]: 55.2%
COc1cc(C2c3cc4c(cc3C(OC3OC5COC(C)OC5C(O)C3O)C3COC(=O)C23)OCO4)cc(OC)c1O (stereo not given) + Cc1ccccc1N=Nc1ccc(NC(=O)c2ccnn2C)c(C)c1 | 1740 nM | 1760 nM | 1470 nM | 1650 nM | 1750 nM | 99.4% | 99.1% | 93.4% | 59.7% | 105% | 100% | 84.4% | 56.9% | 97.7% | 92.4% | 84.4% | 52.2% | 100% | 96.4% | 81.7% | viability, T/C [5]: 40.4%; viability, T/C [6]: 26.5%; viability, T/C [11]: 43%; viability, T/C [12]: 25.5%; viability, T/C [17]: 43.6%; viability, T/C [18]: 29.6%; viability, T/C [22]: 59.4%; viability, T/C [23]: 37.9%; viability, T/C [24]: 26.4%; viability, T/C [25]: 90.7%; viability, T/C [26]: 92.5%; viability, T/C [27]: 82.7%; viability, T/C [28]: 57.6%; viability, T/C [29]: 42.2%; viability, T/C [30]: 27.7%
COc1cccc2c1C(=O)c1c(O)c3c(c(O)c1C2=O)CC(O)(C(=O)CO)CC3OC1CC(N)C(O)C(C)O1 (stereo not given) + Cc1ccccc1N=Nc1ccc(NC(=O)c2ccnn2C)c(C)c1 | 81.6 nM | 110 nM | 107 nM | 104 nM | 98.4 nM | 71.6% | 44.9% | 17.1% | 1.65% | 75.5% | 52.5% | 19.4% | 1.84% | 71.4% | 51.8% | 18.3% | 2.28% | 71% | 50.7% | 19.3% | viability, T/C [5]: 0.32%; viability, T/C [6]: 0.78%; viability, T/C [11]: 0.33%; viability, T/C [12]: 1.22%; viability, T/C [17]: 0.52%; viability, T/C [18]: 0.56%; viability, T/C [22]: 1.97%; viability, T/C [23]: 0.59%; viability, T/C [24]: 0.61%; viability, T/C [25]: 68.7%; viability, T/C [26]: 48.8%; viability, T/C [27]: 21.6%; viability, T/C [28]: 1.61%; viability, T/C [29]: 0.52%; viability, T/C [30]: 0.7%
Nc1ncn(C2CC(O)C(CO)O2)c(=O)n1 (stereo not given) + Cc1ccccc1N=Nc1ccc(NC(=O)c2ccnn2C)c(C)c1 | > 1000 nM | > 1000 nM | > 1000 nM | > 1000 nM | > 1000 nM | 103% | 117% | 104% | 105% | 104% | 113% | 96.3% | 104% | 108% | 101% | 95.4% | 106% | 95.7% | 99.8% | 99.7% | viability, T/C [31]: 111%; viability, T/C [32]: 105%; viability, T/C [33]: 103%; viability, T/C [34]: 95.4%; viability, T/C [35]: 109%; viability, T/C [36]: 104%; viability, T/C [37]: 115%; viability, T/C [38]: 96.2%; viability, T/C [22]: 97.7%; viability, T/C [39]: 98.8%; viability, T/C [40]: 98.1%; viability, T/C [25]: 92.1%; viability, T/C [26]: 91%; viability, T/C [27]: 105%; viability, T/C [28]: 87.6%
